ChEMBL document CHEMBL1157539, “Thousands of chemical starting points for antimalarial lead identification” (Nature, 2010)

test system: Plasmodium falciparum; test: GSK_TCMDC: Inhibition of Plasmodium falciparum 3D7 in whole erythrocytes, using parasite LDH activity as an index of growth.; assay type: functional, organism-based; details: not given

SMILES	XC50
COC(=O)c1ccc(CC(C)NCC(O)c2cccc(C(F)(F)F)c2)cc1 (stereo not given)	765 nM

same assay, conditions: Plasmodium falciparum, 3D7

SMILES	XC50
O=C(N/N=C/c1nc2ccccc2[nH]1)c1cccc([N+](=O)[O-])c1	628 nM
COc1ccc(CNCCCCCCCNCc2ccc(Cl)c(Cl)c2)cc1Cl	1220 nM
CN(CC(=O)Nc1cc(C(F)(F)F)ccc1-n1cncn1)Cc1ccc2ccccc2c1	232 nM
CSc1ccc(NC(=O)Nc2cc(C)nc3ccccc23)cc1	713 nM
O=C(Nc1cc2cc(-c3ccc(CN4CCCCC4)cc3)ccc2n2cnnc12)NC1CCCC1	1520 nM
N#Cc1ccc2c(c1)CCN(CCC1CCC(NC(=O)c3ccc(-c4ccccn4)s3)CC1)CC2 (stereo not given)	1010 nM
N#Cc1ccc(N2CCN(Cc3cccc(-c4cccc(-c5nc6cc(C(F)(F)F)ccc6[nH]5)c4)c3)CC2)nc1	962 nM
NS(=O)(=O)c1ccc(CNc2ccc3ncc(-c4ccc(Cl)cc4)n3n2)cc1	284 nM
CN(C)S(=O)(=O)c1ccc(C(=O)N(c2nc(-c3ccccc3)cs2)C2CCCCC2)cc1	760 nM
CC(C)(CNCc1ccc(F)c(F)c1)c1nc(-c2ccnc(N)n2)c(-c2ccc(Cl)c(O)c2)[nH]1	740 nM
Cc1ccccc1Cc1cccc(/N=C(\N)Nc2ccc(Cl)cc2)n1	676 nM
O=[N+]([O-])c1ccc(Oc2c(Cl)cc(S(=O)(=O)NC3CCC(CN4CCC(c5c[nH]c6ccccc56)CC4)CC3)cc2Cl)c(Cl)c1 (stereo not given)	758 nM
Cc1cc(N(C)C2CCN(C)C2)nc(Nc2ccc(Cl)cc2)n1 (stereo not given)	336 nM
C=CCc1cc(Br)ccc1OCCCON1C(N)=NC(N)=NC1(C)C	3.2 nM
COCCNCc1cccc(-c2ccc(CN(C(=O)Nc3ccccc3)C3CCN(Cc4ccccc4)CC3)cc2)c1	773 nM
NS(=O)(=O)c1ccc(Nc2nccc(-c3c(-c4cccc(NC(=O)c5c(F)cccc5F)c4)nn4ccccc34)n2)cc1	762 nM
CO/C(=C\C=C\c1cc2cc(Cl)c(Cl)cc2[nH]1)C(=O)NCCCN1CCN(c2cccc(O)c2)CC1	579 nM
COc1ccc(NC(=O)/C=C/c2ccccc2Cl)cc1OCCN1CCC(Cc2cc3ccccc3[nH]2)CC1	903 nM
CC(C)NC(=O)Cn1cc(C2CCN(CC3CCN(C(=O)/C=C/c4ccc(Cl)c(Cl)c4)CC3)CC2)c2ccccc21	1030 nM
O=C(/C=C/c1ccc(Cl)c(Cl)c1)N1CCC(CN2CCC(c3c(-c4ccc(F)cc4)[nH]c4ccccc34)CC2)CC1	175 nM
CN(Cc1ccccc1)C(=O)CCNS(=O)(=O)c1cc(Br)cnc1N	1130 nM
Cc1cc(NC(=O)NCCN2CCC(NS(=O)(=O)c3cccc(Br)c3)C2)c2ccccc2n1 (stereo not given)	606 nM
COc1cc2c(cc1C(F)(F)F)N(C(=O)Nc1cc(F)cc(-c3cccnn3)c1)CC2	275 nM
O=C(/C=C/c1ccc(Cl)c(Cl)c1)NCCCCCN1CCC(C(=O)Nc2cccc(Cl)c2)CC1	681 nM

SMILES	XC50
COc1cccc(OC2CCN(C(=O)c3cc(C(C)(C)C)nn3Cc3ccccc3)CC2)c1	254 nM
CS(=O)(=O)c1ccc(-n2nc(C(F)(F)F)cc2-c2ccc(C=NOCC(=O)O)o2)cc1	976 nM
CCNc1cc(C(=O)N[C@@H](Cc2ccccc2)[C@H](O)CNC23CCC(CC2)C3)cc(N2CCCCS2(=O)=O)c1	34.1 nM
Fc1ccc(Nc2nnc(CNC3CCN(Cc4ccc(Cl)c(Cl)c4)CC3)[nH]2)cc1	1380 nM
Cc1cc(NC(=O)Nc2ccc(C(C)(C)C)cc2)c2ccccc2n1	719 nM
CCCCCCCSc1ccc(CC(C)NCC(O)c2cccc(Cl)c2)cc1 (stereo not given)	178 nM
Cc1cccc(Nc2nc(N)c3ccccc3n2)c1	574 nM
N#CCCN1CCN(Cc2cccc(-c3ccc(-c4nc5ccccc5[nH]4)cc3)c2)CC1	1020 nM
Cc1ccc(C(C)C)c(Oc2cnc(NC(CO)c3ccccc3)nc2N)c1 (stereo not given)	962 nM
COc1ccccc1NS(=O)(=O)c1cc(C(=O)Nc2ccc(N3CCOCC3)c(S(=O)(=O)Nc3ccccc3Cl)c2)ccc1Cl	832 nM
CC(C)c1ccc(CN2CCCCC(NC(=O)c3cc(-c4ccccc4Cl)cs3)C2)cc1 (stereo not given)	1120 nM
Cc1cc(C(=O)NC2CCN(Cc3ccccc3)CC2)ccc1-c1nc2cc(Cl)c(Cl)cc2[nH]1	959 nM
N#Cc1cccc(NC(=O)Nc2ccc(-c3csc(-c4nc5ccccc5[nH]4)c3)cc2)c1	152 nM
Cc1ccc(Cc2cccc3nc(N)nc(N)c23)cc1	1150 nM
COc1ccccc1CCCON1C(=N)N=C(N)NC1(C)C	3.2 nM
CCNc1cc(C(=O)N[C@@H](Cc2ccccc2)[C@H](O)CNC2CCC(C(C)(C)C)CC2)cc(N2CCCC2=O)c1 (stereo not given in full)	444 nM
NOCCCOc1ccccc1	321 nM
COc1cccc(C(=O)Nc2nc3c(s2)CCN(Cc2ccccc2N2CCNCC2)CC3)c1	888 nM
CCOc1ccc(-c2nonc2NC(=O)c2ccc(F)cc2)cc1OCC	327 nM
CSc1sc(NC(=O)Nc2cccc(C(F)(F)F)c2)cc1C#N	912 nM
FC(F)(F)COc1c(CCNCCCCNCCc2ccc3ccccc3c2OCC(F)(F)F)ccc2ccccc12	348 nM
FC(F)(F)c1cccc(CCNc2nccc(NCc3ccc(Cl)cc3Cl)n2)c1	858 nM
C[C@H](Cc1ccc(OCCCCCCOc2ccc(C[C@@H](C)NC[C@H](O)c3cccc(Cl)c3)cc2)cc1)NC[C@H](O)c1cccc(Cl)c1	296 nM
c1csc(-c2nc(NCC3CCCO3)ncc2-c2ccsc2)n1 (stereo not given)	487 nM

SMILES	XC50
CCC(C)c1ccc(-n2c(Nc3ccccc3)nc3cc(S(N)(=O)=O)ccc32)cc1 (stereo not given)	1060 nM
O=C(Cc1ccc[n+]([O-])c1)Nc1ccc(-c2cccc(-c3nc4cc(C(F)(F)F)ccc4[nH]3)c2)cc1	882 nM
CN1CCN(Cc2nc(-c3ccc4c(Nc5ccc(F)c(O)c5)ccnc4c3)cs2)CC1	171 nM
N=C1N=C(N)NCN1OCc1ccc(Cl)c(Cl)c1	194 nM
C[C@@H](NC(=O)NC(CCN1CCC2(CC1)CN(S(C)(=O)=O)c1ccccc12)c1ccc(Cl)c(Cl)c1)c1ccccc1 (stereo not given in full)	903 nM
O=C(Nc1ccc([N+](=O)[O-])cc1)c1nn(-c2ccccc2)cc1/N=C/c1cccc(O)c1	890 nM
CN(C)CCOc1ccc(-c2cc(-c3ccc(Cl)c(O)c3)c(-c3ccncc3)[nH]2)cc1	580 nM
CC(NC(=O)c1cc(-c2ccccc2)nc2c1cnn2C(C)C)C1CC1 (stereo not given)	1280 nM
COc1ccc(-c2cccc(NC(=O)c3ccc(Cl)cc3)c2)cc1CN1CCNCC1	840 nM
Cc1ccc2c(Cl)c(C(=O)N3CCCc4ccccc43)sc2c1	1510 nM
Cc1cccc(Cn2c(C(N)=O)nn(-c3ccc([N+](=O)[O-])cc3C#N)c2=S)c1	731 nM
CC(Nc1ccnc2cc(Cl)ccc12)c1ccc(S(N)(=O)=O)cc1 (stereo not given)	933 nM
Cc1c(Cl)cccc1S(=O)(=O)N1CCCCC(c2ccc(C(F)(F)F)cc2)=N1	788 nM
CN1CCN(CC(=O)Nc2ccc(-c3ccc(-c4nc5cc(C(F)(F)F)ccc5[nH]4)cc3)cc2)CC1	420 nM
COc1ccc2nccc(N(C)CC3(O)CCC(NCc4ccc5c(n4)NC(=O)CS5)CC3)c2n1 (stereo not given)	700 nM
N#Cc1ccc(-c2ccc(C(=O)NCCCCN3CC=C(c4ccc5c(c4OCC4CC4)CCCC5)CC3)cc2)cc1	623 nM
O=C(NC1CCC(N2CCC(c3nc4ccccc4s3)CC2)CC1)c1cc2ccccc2[nH]1 (stereo not given)	926 nM
O=C1CCCN1CCCNCc1cccc(-c2ccc(-c3nc4ccccc4[nH]3)s2)c1	859 nM
O=C(NCc1cccc(C(F)(F)F)c1)C1CCCN(C(=O)c2ccc(O)c(-c3ccc(Cl)c(Cl)c3)c2)C1 (stereo not given)	804 nM
CCS[C@@H]1O[C@H](COC(=O)c2ccccc2)[C@H](OC(=O)c2ccccc2)[C@H](OC(=O)c2ccccc2)[C@H]1OC(=O)c1ccccc1	808 nM
Cc1nc(-c2cccc(Nc3nccc(NCC(O)c4cccc(F)c4)n3)c2)cs1 (stereo not given)	699 nM
C[C@@H]1C[C@@H]([C@H](O)CC2CC(=O)NC(=O)C2)C(=O)[C@@H](C)C1 [CYCLOHEXIMIDE]	527 nM
Cc1cc(NCCC(=O)Nc2ccccc2)nc(NCCc2cccs2)n1	893 nM
COc1ccc(NC(=O)[C@H](CC(C)C)Nc2cc(C)nc(NCCc3cccs3)n2)cc1	964 nM

SMILES	XC50
CC(=O)Nc1ccc(C(=O)Nc2cccc(-c3ccc(-c4nc5ccccc5[nH]4)cc3)c2)cn1	206 nM
CCc1cccc(C)c1-n1nc(-c2cc(C(C)(C)C)oc2C)cc1N	658 nM
CSc1ccccc1NC(=S)NC1CCN(CCCCCNC(=O)/C=C/c2ccc(Cl)c(Cl)c2)CC1	778 nM
CCCNCc1ccc(-c2ccc(CN(CCOC)C(=O)[C@H]3CCCO3)cc2)nc1	745 nM
CCc1cn2c3c(cc(C(=O)N[C@@H](Cc4ccccc4)[C@H](O)CNCC(C)C)cc13)N(C)S(=O)(=O)CC2	37.6 nM
O=C(/C=C/c1cc(F)cc(C(F)(F)F)c1)N1CCC(CN2CCC(c3c[nH]c4ccccc34)CC2)CC1	756 nM
CCc1ccc(NC(=O)c2ccc(CN3CCCN(Cc4cccs4)CC3)cc2)cc1	827 nM
CC(C)C1CCc2nc(N)nc(N)c2C1 (stereo not given)	139 nM
C/C=C/COc1ccc2ccccc2c1CNCCCCCCCCNCc1c(OC/C=C/C)ccc2ccccc12	908 nM
Cc1cc(=O)c2cc(Oc3ccc(OC(F)(F)F)cc3)ccc2[nH]1	990 nM
COc1ccc(O)c(-c2sc(N=C(N)N)nc2-c2ccccc2)c1	372 nM
CC(C)c1ccc(C(NC(=O)C2CCCCC2)c2ccc3cccnc3c2O)cc1 (stereo not given)	603 nM
NC(=O)c1cccc(Nc2nccc(Nc3ccc4[nH]c(-c5ccccc5)cc4c3)n2)c1	776 nM
CC(=O)Oc1c(C2C=CCCC2)c(OC(C)=O)c2ccccc2c1OC(C)=O (stereo not given)	605 nM
Nc1nc2c(c(=O)[nH]1)CN(S(=O)(=O)c1ccc(C(=O)N[C@@H](CCC(=O)O)C(=O)O)cc1)CC2	146 nM
N=C(NCCCCCCCCNC(=N)Nc1ccc(Cl)cc1)Nc1ccc(Cl)cc1	590 nM
OCCN1CCN(Cc2ccc(-c3ccc(-c4nc5ccccc5[nH]4)cc3)cc2)CC1	616 nM
COCCN1CCC(NCC(C)(C)c2nc(-c3ccc(Cl)c(O)c3)c(-c3ccncc3)[nH]2)CC1	717 nM
CN1CCC(NCc2cccc(-c3ccc(S(=O)(=O)NCCN4CCCC4)c(F)c3)c2)CC1	1010 nM
COc1ccc2nccc([C@@H](O)CN3CCC(NCc4cc5cc([N+](=O)[O-])ccc5[nH]4)CC3)c2c1	117 nM
COc1ccc2nccc([C@@H](O)CN3CCC(NC(=O)c4ccc(-c5ccc(C#N)cc5)cc4)CC3)c2c1	164 nM
O=C(Nc1ccc(C(=O)OCC2CCCCC2)cc1)N[C@@H](Cc1ccc(O)cc1)C(=O)NC1CCN(Cc2ccc(O)cc2)C1 (stereo not given in full)	874 nM
